Patent publication US8946244B2, “2′-fluoro-6′methylene carbocyclic nucleosides and methods of treating viral infections” (University of Georgia Research Foundation, Inc., priority 2009, dated 2015)

Tests used:
[1] = system: HBV; experiment: standard HBV assay (laboratory of Dr. Brent Korba); assay type: cell-based, Hepatitis B virus
Description: (§1) Drug susceptibility assays were performed as previously described. Cytotoxicity assays in PBM, CEM and Vero cells were conducted as previously described. Two compounds were used for testing, the first, an adenine nucleoside analog which contained hydroxyl groups at R^1 and R^1a on the sugar portion of the molecule (compound 15/18) and the second, a prodrug nucleoside based upon compound 15/18 which contained a phosphoamidate group on R^1 (R^1a was H) containing a phenyl group as R^6 and B′ was an amino acid group derived from alanine, where R^8 was methyl and R″ was a methyl group, forming a methyl ester. These compounds were tested in a standard HBV assay in the laboratory of Dr. Brent Korba.

[2] = system: lamivudine-resistant mutants including rtM204V/I±rtL180M; settings: literature ref. 50; cited from earlier work
[3] = system: HBV rtL180M; experiment: intracellular HBV DNA replication assay, rtL180M mutant; assay type: cell-based, Hepatitis B virus
Description: as §1

[4] = system: wild-type HBV; experiment: intracellular HBV DNA replication assay, wild-type HBV; assay type: cell-based, Hepatitis B virus
Description: as §1

[5] = system: HBV double mutant rtL180M/rtM204V; experiment: intracellular HBV DNA replication assay, double mutant; assay type: cell-based; settings: Hepatitis B virus
Description: as §1

[6] = system: HBV rtA181T and rtN236T; settings: cited from earlier work

## C=C1C(COP(=O)(N[C@@H](C)C(=O)OC)Oc2ccccc2)C(O)C(F)C1n1cnc2c(N)ncnc21 (stereo partly drawn) [Test Number 2, 2′-Deoxy-2′-fluoro-3′-hydroxy-4′-(hydroxymethyl)-5′-methylene-carbocyclic Adenosine (2′-FMCA) Monophosphate prodrug]
[1]
  times more active than the compound where both R1 and R1a are H: more than 10 times

## C=C1[C@H](CO)[C@@H](O)C[C@@H]1n1cnc2c(=O)[nH]c(N)nc21 [entecavir]
[2]
  fold loss of activity against lamivudine-resistant mutants: 8 fold

## C=C1[C@@H](n2cnc3c(N)ncnc32)[C@@H](F)[C@H](O)[C@H]1CO [Compound 15, (+)-(1R,2R,3R,5R)-3-(6-amino-9H-9-purinyl)-2-fluoro-5-(hydroxymethyl)-4-methylenecyclopentan-1-ol]
[3]
  fold increased antiviral activity in the EC90 value versus lamivudine: 4.3 fold
[4]; wild-type HBV, EC90
  fold more potent than adefovir (EC90): 1.5 fold

## C=C1[C@@H](n2cnc3c(N)ncnc32)[C@@H](F)[C@H](O)[C@H]1CO (hydrate or solvate) [Compound 15, (+)-(1R,2R,3R,5R)-3-(6-amino-9H-9-purinyl)-2-fluoro-5-(hydroxymethyl)-4-methylenecyclopentan-1-ol]
other
  melting point: 215 to 218 °C (dec.)

## Nc1ncnc2c1ncn2CCOCP(=O)(O)O [adefovir]
[5]; read-out: EC50 against double mutant rtL180M/rtM204V
  EC50: 2.2 µM
[5]; read-out: EC90 against double mutant rtL180M/rtM204V
  EC90: 8.5 µM
[6]
  increase in median effective concentration: two-fold to nine-fold
[4]; Hepatitis B virus, HBV-WT, concentration required to inhibit 90% of HBV DNA, read-out: EC90 against wild-type HBV
  EC90: 7.1 µM
